“Also recorded” adds a separate entry of the source. Each block holds one compound with its values, some of them ahead of it.
How the values were obtained:
[1] = system: 78 recombinant targets; assay: In-vitro selectivity panel, 78 targets; settings: all 9 modulated targets of 78
Procedure: A broad panel of 78 recombinant targets was tested for pharmacologic activity in vitro through a variety of functional assays (Eurofins DiscoverX, USA), as part of the National Institute of Neurological Disorders and Stroke (NINDS) Preclinical Screening Platform for Pain (PSPP) program. The biological targets for the in vitro profiling have been selected based on avoiding opioid receptor stimulation and targets known to be associated with adverse events or targeted by drugs of abuse. […] For each test, a reference compound was evaluated at the target of interest as a positive control.
In addition, based on efficacious exposures in vivo, the separation from other targets is still greater than 1000-fold, further supporting the specificity of the compound's MOA.

[2] = system: rats; assay: Modified Irwin test; format: in vivo, rat; settings: up to 300 mg/kg, male and female
[3] = system: hTRPV1; assay: hTRPV1 dual activity electrophysiology, CHO cells co-expressing hKv7.2/3 and hTRPV1; format: cell-based; settings: rat DRG and dual CHO
[4] = molecular target: OATP1B3 (Homo sapiens, UniProt Q9NPD5); assay: Transporter substrate, OATP1B3; format: in vitro ADME; settings: role: substrate
Procedure: Additionally, compound 760 was tested for its capability to act as a transporter substrate for various transporters, and was not found to be a transporter substrate for any of the tested transporters.

[5] = system: rat DRG neurons; assay: Rat DRG neurons, current-evoked action potential firing; format: cell-based
From the text: rDRGs isolation and primary cell culture: Briefly, rat DRGs from all spinal levels were carefully removed and collected in HBSS on ices, connective tissue of the epineurium surrounding the ganglion was removed and cells were dissociated using Collagenase-II and trypsin dissociation solutions. DRGs were dissociated further, passed through glass Pasteur pipettes to obtain single cells. Then dissociation solution was changed to 5% FBS containing DRG neuronal culture medium and plated onto ECL coated 12 mm cover glass.
Additional rDRGs experiments were performed using Lonza primary neonatal rat (Sprague Dawley neonatal; P2,3) DRG neurons (R-DRG-505, Lonza) plated and cultured according to the manufacturer.
Electrophysiology: Cells were used for electrophysiological recording at least 48 hours following rDRG isolation or at least 5 days following cryopreserved rDRG thawing. Round small neurons (20-40 μm in diameter) were selected for electrophysiology recordings, to select for small nociceptive neurons that propagate pain sensation in vivo and that are expressing both Kv7.2/3 and TRPV1 targets. Membrane excitability was monitored using current clamp configuration of the whole-cell patch-clamp technique. Positive current steps of different amplitude were injected (400 ms) to induce spikes trains before and following compound application.

[6] = system: rat DRGs; assay: NGF-treated rat DRG neuropathic model, capsaicin-induced tetanic burst; format: cell-based; settings: NGF 100 ng/ml pretreated
Procedure: DRGs treated with NGF show tetanic action potential burst in response to CAP application, mimicking neuropathic like response. See, Background Art FIG. 8A. NGF enhances TRPV1 function using Calcium-dependent fluorescence, F, relative to maximal fluorescence, Fmax, as a function of time from a single HEK293 cell stably transfected with TrkA and transiently transfected with hTRPV1. Pulses of capsaicin (100 nM, applied as shown at top) elicited submaximal increases in [Ca]i. Exposure to NGF (100 ng/mL, see top) enhanced the capsaicin induced calcium increase. Arrows show responses used for calculation of sensitization ratio.

Sequence of OATP1B3 (Q9NPD5 whole entry): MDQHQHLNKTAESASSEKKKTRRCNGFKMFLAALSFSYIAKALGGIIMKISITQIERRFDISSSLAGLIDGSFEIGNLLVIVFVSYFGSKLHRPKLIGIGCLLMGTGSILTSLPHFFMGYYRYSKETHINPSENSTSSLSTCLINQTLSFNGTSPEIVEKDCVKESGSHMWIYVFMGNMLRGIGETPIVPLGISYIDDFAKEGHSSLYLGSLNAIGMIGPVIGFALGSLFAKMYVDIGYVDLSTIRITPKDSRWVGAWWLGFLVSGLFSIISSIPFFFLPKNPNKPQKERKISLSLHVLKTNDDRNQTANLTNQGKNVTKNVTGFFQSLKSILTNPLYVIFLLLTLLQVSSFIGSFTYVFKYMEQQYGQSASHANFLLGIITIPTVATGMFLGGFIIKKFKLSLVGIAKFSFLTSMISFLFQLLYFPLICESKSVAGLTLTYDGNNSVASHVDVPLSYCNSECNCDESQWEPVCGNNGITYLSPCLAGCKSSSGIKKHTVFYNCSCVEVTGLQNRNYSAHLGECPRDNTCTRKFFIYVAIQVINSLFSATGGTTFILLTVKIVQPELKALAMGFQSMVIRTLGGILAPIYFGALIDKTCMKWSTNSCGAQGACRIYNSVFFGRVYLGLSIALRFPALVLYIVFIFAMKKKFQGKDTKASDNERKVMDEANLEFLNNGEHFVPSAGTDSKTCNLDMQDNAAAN

IC50 [1]: > 1.4 µM
Modified Irwin FOB [2]: no effects up to 300 mg/kg
SMILES: O=C(Cc1cncc(-n2cc(Cl)c3cc(Cl)cc(Cl)c32)c1)N[C@@H]1COC[C@H]1O [Compound 661]

SMILES: O=C(Cc1nccc(-n2cc(Cl)c3cc(Cl)cc(Cl)c32)n1)NC1COCC1O (stereo not drawn) [Compound 760]
IC50 [3]: 0.0001 to 0.00023 µM
OATP1B3 substrate [4]: not a transporter substrate

IC50 ([5]; read-out: IC50 for inhibition of current induced AP responses): ~0.5 µM
SMILES: Cc1cn(-c2ccc(F)c(CC(=O)NCC(C)(C)O)c2)c2c(Cl)cc(Cl)cc12 [Compound 421-6]
Inhibition of current induced AP response ([5]; 100 nM): 10.1±3.4%
Inhibition of current induced AP response ([5]; 500 nM): 51.2±8.4%
Inhibition of AP response to current ([5]; 2 μM): 77.7±5.6%
Effect on capsaicin induced tetanic action potential burst [6]: alleviates the capsaicin induced tetanic action potential burst at levels below EC50; also recorded: reversible inhibition
